Measurements: article PMC7766327, “Inhibition of Pneumolysin Cytotoxicity by Hydrolysable Tannins” (Antibiotics, 2020)
Read-outs that look alike come from different tables or passages of the source.

Columns and labels:
pneumolysin (Ply) [1] = biological target: T1, pneumolysin (Ply) (Streptococcus pneumoniae serotype 2, UniProt Q04IN8); assay: cell-based; format: cell-based
T1 construct: made in house; host or cells: E. coli BL21(DE3)
Description: Native human erythrocytes were taken into EDTA tubes. The erythrocytes were washed three times with PBS (0.15 M NaCl, 2.7 mM KCl, 8.1 mM Na2HPO4 and 1.5 mM KH2PO4) by centrifugation at 700× g for 10 min. The purified erythrocytes were stored at +4 °C. Erythrocytes (1% v/v) in PBS were mixed with 1 nM Ply and dilution series of polyphenol inhibitors in 96-well microtiter plates. The reaction was incubated for 30 min at 37 °C. The plates were centrifuged, and the supernatant was pipetted into flat-bottomed microtiter plates to measure the absorbance at 570 nm (VICTOR X4, PerkinElmer, Turku, Finland) of the released hemoglobin from lysed erythrocytes. The absorbances of triplicate measurements are presented as a function of inhibitor concentration. The IC50 values were calculated with Origin data analysis software (2016, OriginLab Corporation, Northampton, MA, USA).

pneumolysin (Ply) [2] = biological target: T1, pneumolysin (Ply); assay: Precipitation assay of pneumolysin-tannin interaction; format: binding; details: for Minimum Precipitating Concentration: 10 μM Ply, Na-acetate buffer pH 5.0, 25 °C, 30 min, absorbance 414 nm; for Precipitation Relative Power: fold compared to vescalagin (=1); for Fold higher precipitating concentration compared to hemolysis IC50: minimum precipitating concentration vs hemolysis IC50
Description: The precipitation assay with tannins was done as described previously with bovine serum albumin [22]. First, 10 μM of Ply and dilution series of polyphenols (5–1000 µM) were incubated in a Na-acetate buffer (200 mM NaCl and 50 mM CH3COONa; pH 5.0) at 25 °C for 30 min with shaking. The reactions were carried out in Multiskan Ascent plate reader (Labsystems, Vantaa, Finland) and the precipitation was measured at 414 nm. The minimum concentration precipitating Ply was calculated with Origin data analysis software (2016, OriginLab Corporation, Northampton, MA, USA).

[3] = IC50 (screening with hemolysis assays), estimated from the inhibition curves, two-fold dilutions of tannins
[4] = read-out: IC50 (screening with hemolysis assays), estimated from the inhibition curves, two-fold dilutions of tannins
[5] = Hemolysis Inhibition IC50, 1 nM Ply, 1% human erythrocytes, 30 min 37 °C, logistic fit
[6] = classification by IC50 from two-fold dilutions

T1 sequence (Q04IN8 whole entry): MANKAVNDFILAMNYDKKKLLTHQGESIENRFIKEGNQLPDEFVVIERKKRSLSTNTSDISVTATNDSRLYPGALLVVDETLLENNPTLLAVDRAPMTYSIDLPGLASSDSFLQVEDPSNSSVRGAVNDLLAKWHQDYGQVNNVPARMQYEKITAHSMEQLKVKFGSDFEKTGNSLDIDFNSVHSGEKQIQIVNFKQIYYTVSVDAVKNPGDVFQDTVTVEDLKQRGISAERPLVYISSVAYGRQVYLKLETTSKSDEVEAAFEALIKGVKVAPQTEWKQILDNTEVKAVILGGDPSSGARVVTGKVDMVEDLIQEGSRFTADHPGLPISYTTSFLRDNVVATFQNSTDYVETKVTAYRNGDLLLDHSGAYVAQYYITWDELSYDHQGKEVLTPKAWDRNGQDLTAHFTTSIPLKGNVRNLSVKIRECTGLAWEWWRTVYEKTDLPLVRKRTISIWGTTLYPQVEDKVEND

Which IC50 (pneumolysin (Ply) [1]; [3]) does the source give for `O=C1O[C@H]2[C@@H]3OC(=O)c4cc(O)c(O)c(O)c4-c4c(O)c(O)c5oc(=O)c6c(c(O)c(O)c7oc(=O)c4c5c76)-c4c(cc(O)c(O)c4O)C(=O)OC[C@H]3OC(O)[C@@H]2OC(=O)c2cc(O)c(O)c(O)c2-c2c1cc(O)c(O)c2O` (mixture of isomers) [Punicalagin] here?
The IC50 was 0.06 µM.

Which IC50 (pneumolysin (Ply) [1]; [3]) does the source give for `O=C(O[C@@H]1O[C@@H]2COC(=O)c3cc(O)c(O)c(O)c3-c3c(cc(O)c(O)c3O)C(=O)O[C@H]2[C@H](O)[C@H]1OC(=O)c1cc(O)c(O)c(O)c1)c1cc(O)c(O)c(O)c1` [1,2,-di-O-galloyl-4,6-HHDP-β-D-glucose] here?
Its IC50 is 0.07 µM.

`O=C(O[C@@H]1O[C@H](CO)[C@@H](O)[C@H](O)[C@H]1O)c1cc(O)c(O)c(O)c1` [1-O-galloyl-β-D-glucose] was tested. Which IC50 (pneumolysin (Ply) [1]; [3]) did it give?
Its IC50 is > 0.1 µM.

For `O=C(OC1OC2COC(=O)c3cc(O)c(O)c(O)c3-c3c(cc(O)c(O)c3O)C(=O)OC2C2OC(=O)c3cc(O)c(O)c(O)c3-c3c(cc(O)c(O)c3O)C(=O)OC12)c1cc(O)c(O)c(Oc2c(C(=O)OC3OC4COC(=O)c5cc(O)c(O)c(O)c5-c5c(cc(O)c(O)c5O)C(=O)OC4C4OC(=O)c5cc(O)c(O)c(O)c5-c5c(cc(O)c(O)c5O)C(=O)OC34)cc(O)c(O)c2O)c1` (stereo not shown) [Agrimoniin], which IC50 (pneumolysin (Ply) [1]; [4]) is on record?
Its IC50 is 0.03 µM.

How did the IC50 (pneumolysin (Ply) [1]; [3]) turn out when `O=C1OC[C@H]2OC(=O)c3cc(O)c(O)c(O)c3-c3c(O)c(O)c(O)c4c3C(=O)O[C@H]([C@H]3OC(=O)c5c-4c(O)c(O)c(O)c5[C@H]3O)[C@@H]2OC(=O)c2cc(O)c(O)c(O)c2-c2c1cc(O)c(O)c2O` [Castalagin] was run?
The IC50 was 0.08 µM.

For `O=C(O[C@@H]1O[C@@H]2COC(=O)c3cc(O)c(O)c(O)c3-c3c(cc(O)c(O)c3O)C(=O)O[C@H]2[C@@H]2OC(=O)c3cc(O)c(O)c(O)c3-c3c(cc(O)c(O)c3O)C(=O)O[C@@H]12)c1cc(O)c(O)c(O)c1` [Casuarictin], which IC50 (pneumolysin (Ply) [1]; [3]) is on record?
The IC50 was 0.04 µM.

For `O=C(O[C@@H]1COC(=O)c2cc(O)c(O)c(O)c2-c2c(cc(O)c(O)c2O)C(=O)O[C@H]1[C@@H]1OC(=O)c2cc(O)c(O)c(O)c2-c2c(O)c(O)c(O)c3c2C(=O)O[C@H]1[C@@H]3O)c1cc(O)c(O)c(O)c1` [Casuarinin], which IC50 (pneumolysin (Ply) [1]; [3]) is on record?
The IC50 was 0.09 µM.

For `O=C(O)C[C@@H]1C(=O)O[C@H]2[C@@H]3OC(=O)c4cc(O)c(O)c(O)c4-c4c(cc(O)c(O)c4O)C(=O)OC[C@H]2O[C@@H](OC(=O)c2cc(O)c(O)c(O)c2)[C@@H]3OC(=O)c2cc(O)c(O)c3c2[C@H]1[C@H](O)C(=O)O3` [Chebulagic acid], which IC50 (pneumolysin (Ply) [1]; [3]) is on record?
The IC50 was > 0.1 µM.

What does the source list for `O=C(O[C@@H]1O[C@@H]2COC(=O)c3cc(O)c(O)c(O)c3-c3c(cc(O)c(O)c3O)C(=O)O[C@H]2[C@H](OC(=O)c2cc(O)c(O)c(O)c2)[C@H]1OC(=O)c1cc(O)c(O)c(O)c1)c1cc(O)c(O)c(Oc2c(C(=O)O[C@H]3O[C@@H]4COC(=O)c5cc(O)c(O)c(O)c5-c5c(cc(O)c(O)c5O)C(=O)O[C@H]4[C@@H]4OC(=O)c5cc(O)c(O)c(O)c5-c5c(cc(O)c(O)c5O)C(=O)O[C@@H]34)cc(O)c(O)c2O)c1` [Gemin A]?
Minimum Precipitating Concentration (pneumolysin (Ply) [2]): 6.2 µM; Precipitation Relative Power (pneumolysin (Ply) [2]): 130; Fold higher precipitating concentration compared to hemolysis IC50 (pneumolysin (Ply) [2]): 150 fold; Hemolysis Inhibition Inhibitory Power (pneumolysin (Ply) [1]): 5.9; IC50 (pneumolysin (Ply) [1]; [5]): 0.041 ± 0.001 µM; IC50 (pneumolysin (Ply) [1]; [3]): 0.02 µM; Inhibitor class in hemolysis inhibition assay (pneumolysin (Ply) [1]; [6]): potent (potent inhibitors (IC50 10–30 nM))

`O=C1O[C@H]2[C@@H]3OC(=O)c4cc(O)c(O)c(O)c4-c4c(cc(O)c(O)c4O)C(=O)OC[C@H]2O[C@@H](OC(=O)c2cc(O)c(O)c(O)c2)[C@@H]3OC(=O)c2cc(O)c(O)c3c2[C@@H]2C1=CC(=O)[C@](O)(O3)C2(O)O` [Geraniin] was tested. Which IC50 (pneumolysin (Ply) [1]; [3]) did it give?
Its IC50 is 0.1 µM.

Which IC50 (pneumolysin (Ply) [1]; [4]) does the source give for `O=C(OC1OC2COC(=O)c3cc(O)c(O)c(O)c3-c3c(cc(O)c(O)c3O)C(=O)OC2C2OC(=O)c3cc(O)c(O)c(O)c3-c3c(cc(O)c(O)c3O)C(=O)OC12)c1cc(O)c(O)c(Oc2c(O)c(O)c(O)c3c2C(=O)OC2C(COC(=O)c4cc(O)c(O)c(O)c4-3)OC(OC(=O)c3cc(O)c(O)c(Oc4c(O)c(O)c(O)c5c4C(=O)OC4C(COC(=O)c6cc(O)c(O)c(O)c6-5)OC(OC(=O)c5cc(O)c(O)c(O)c5)C5OC(=O)c6cc(O)c(O)c(O)c6-c6c(cc(O)c(O)c6O)C(=O)OC45)c3)C3OC(=O)c4cc(O)c(O)c(O)c4-c4c(cc(O)c(O)c4O)C(=O)OC23)c1` (stereo not shown) [Lambertianin C] here?
The IC50 was 0.02 µM.

For `O=C(O[C@H]1[C@@H]2OC(=O)c3cc(O)c(O)c(O)c3-c3c4cc(c(O)c3O)Oc3c(cc(O)c(O)c3O)C(=O)O[C@H]3C(O)O[C@@H]5COC(=O)c6cc(O)c(O)c(O)c6-c6c(cc(c(O)c6O)Oc6c(cc(O)c(O)c6O)C(=O)O[C@H]1C(O)O[C@@H]2COC4=O)C(=O)O[C@H]5[C@@H]3OC(=O)c1cc(O)c(O)c(O)c1)c1cc(O)c(O)c(O)c1` (stereo partly shown) [Oenothein B], which “Minimum Precipitating Concentration” value (pneumolysin (Ply) [2]) is on record?
Its value is 510 µM.

And the “Precipitation Relative Power” value (pneumolysin (Ply) [2])?
Its value is 1.6.

And the “Fold higher precipitating concentration compared to hemolysis IC50” value (pneumolysin (Ply) [2])?
The value was 9300 fold.

What about the “Hemolysis Inhibition Inhibitory Power” value (pneumolysin (Ply) [1]) of the same molecule?
Its value is 4.4.

And the IC50 (pneumolysin (Ply) [1]; [5])?
The IC50 was 0.055 ± 0.0021 µM.

What about the IC50 (pneumolysin (Ply) [1]; [3]) of the same molecule?
Its IC50 is 0.06 µM.

And the “Inhibitor class in hemolysis inhibition assay” value (“Inhibitor class” for short) (pneumolysin (Ply) [1]; [6])?
The value was “moderate (moderate inhibitors (IC50 40–90 nM))”.

Which IC50 (pneumolysin (Ply) [1]; [3]) does the source give for `O=C1OC[C@H]2OC(O)[C@@H]3OC(=O)c4cc(O)c(O)c(O)c4-c4c(cc(O)c(O)c4O)C(=O)O[C@H]3[C@@H]2OC(=O)c2cc(O)c(O)c(O)c2-c2c1cc(O)c(O)c2O` (stereo partly shown) [Pedunculagin] here?
The IC50 was > 0.1 µM.

Which IC50 (pneumolysin (Ply) [1]; [4]) does the source give for `O=C(OC1OC2COC(=O)c3cc(O)c(O)c(O)c3-c3c(cc(O)c(O)c3O)C(=O)OC2C2OC(=O)c3cc(O)c(O)c(O)c3-c3c(cc(O)c(O)c3O)C(=O)OC12)c1cc(O)c(O)c(Oc2c(O)c(O)c(O)c3c2C(=O)OC2C(COC(=O)c4cc(O)c(O)c(O)c4-3)OC(OC(=O)c3cc(O)c(O)c(O)c3)C3OC(=O)c4cc(O)c(O)c(O)c4-c4c(cc(O)c(O)c4O)C(=O)OC23)c1` (stereo not shown) [Sanguiin H-6] here?
Its IC50 is 0.02 µM.

Which IC50 (pneumolysin (Ply) [1]; [3]) does the source give for `O=C(OC1COC(=O)c2cc(O)c(O)c(O)c2-c2c(cc(O)c(O)c2O)C(=O)OC1C1OC(=O)c2cc(O)c(O)c(O)c2-c2c(O)c(O)c(O)c3c2C(=O)OC1C3O)c1cc(O)c(O)c(O)c1` (stereo not shown) [Stachyurin] here?
Its IC50 is > 0.1 µM.

With `O=C(OC1O[C@@H]2COC(=O)c3cc(O)c(O)c(O)c3-c3c(cc(O)c(O)c3O)C(=O)O[C@H]2[C@H](OC(=O)c2cc(O)c(O)c(O)c2)[C@H]1OC(=O)c1cc(O)c(O)c(O)c1)c1cc(O)c(O)c(O)c1` (stereo partly shown) [Tellimagrandin II] as the molecule, how does the “Inhibitor class” value (pneumolysin (Ply) [1]) read?
The value was “potent (key: negative or weak inhibitors (IC50 ≥ 100 nM); moderate inhibitors (IC50 40–90 nM); potent inhibitors (IC50 10–30 nM))”.

What about the IC50 (pneumolysin (Ply) [1]; [3]) of the same molecule?
The IC50 was 0.01 µM.

For `O=C(O[C@H]1[C@@H]2OC(=O)c3cc(O)c(O)c(O)c3-c3c(cc(O)c(O)c3O)C(=O)OC[C@H]2OC(O)[C@@H]1OC(=O)c1cc(O)c(O)c(O)c1)c1cc(O)c(O)c(O)c1` (stereo partly shown) [Tellimagrandin I], which IC50 (pneumolysin (Ply) [1]; [3]) is on record?
Its IC50 is 0.06 µM.

How did the “Minimum Precipitating Concentration” value (pneumolysin (Ply) [2]) turn out when `O=C1OCC2OC(=O)c3cc(O)c(O)c(O)c3-c3c(O)c(O)c(O)c4c3C(=O)OC(C2OC(=O)c2cc(O)c(O)c(O)c2-c2c1cc(O)c(O)c2O)C1OC(=O)c2c-4c(O)c(O)c(O)c2C1O` (stereo not shown) [Vescalagin] was run?
The value was 820 µM.

What about the “Precipitation Relative Power” value (pneumolysin (Ply) [2]) of the same molecule?
The value was 1.

What about the “Fold higher precipitating concentration compared to hemolysis IC50” value (pneumolysin (Ply) [2]) of the same molecule?
Its value is 3400 fold.

And the IC50 (pneumolysin (Ply) [1]; [5])?
Its IC50 is 0.24 ± 0.0053 µM.

And the IC50 (pneumolysin (Ply) [1]; [3])?
Its IC50 is > 0.1 µM.

And the “Inhibitor class” value (pneumolysin (Ply) [1]; [6])?
Its value is “weak (negative or weak inhibitors (IC50 ≥ 100 nM))”.

What about the “Hemolysis Inhibition Inhibitory Power” value (pneumolysin (Ply) [1]; relative to IC50 of vescalagin (=1)) of the same molecule?
The value was 1.
